4 molecules from the NIST ThermoML archive (doi:10.1016/j.tca.2012.02.020) can be followed below.

Numbers after ± are expanded uncertainties.

The conditions of data set [1]: Crystal; visual observation.
A short description of data set [2]: Molar enthalpy of transition or fusion. The following applies: Crystal; DSC.

As for `O=Cc1cccc(O)c1` [3-hydroxybenzaldehyde], the Normal melting temperature in data set [1] was 103.00 ± 1 °C. In addition, the “Molar enthalpy of transition or fusion” value in data set [2] came out at 5.76 ± 0.167 kcal/mol.

Turning to `Clc1ccc(Br)cc1` [1-bromo-4-chlorobenzene], in data set [1], the Normal melting temperature amounted to 65.00 ± 1 °C. Moreover, the “Molar enthalpy of transition or fusion” value in data set [2] worked out at 4.76 ± 0.143 kcal/mol.

Consider `Nc1cccc(O)c1` [3-hydroxybenzenamine], for which the Normal melting temperature in data set [1] was 123.00 ± 1 °C. In data set [2], the “Molar enthalpy of transition or fusion” value was found to be 6.6 ± 0.191 kcal/mol.

`c1ccc(-c2ccccc2)cc1` [biphenyl]: the Normal melting temperature in data set [1] worked out at 70.50 ± 1 °C. Moreover, in data set [2], the “Molar enthalpy of transition or fusion” value was 4.61 ± 0.143 kcal/mol.
